Source: patent US20230338463A1, “ICD PEPTIDE AND USE THEREOF FOR HAVING CYTOTOXIC ACTIVITY ON CANCER CELLS” (NATIONAL TSING HUA UNIVERSITY, priority 2022, published 2023)
Non-standard residues stand in square brackets, D forms with d. Residues, ends and D or L forms follow the SMILES beside them. 2Nal = N[C@@H](Cc1ccc2ccccc2c1)C(=O)O

Key:
MN-11 cells [1] = assay: Extracellular cytochrome c ELISA, MN-11; assay type: cell-based, murine
Procedure: The cells were treated with 2× IC50 Nal-P-113 (FIG. 8A), Bip-P-113 (FIG. 8B), and Dip-P-113 (FIG. 8C) for 0.5, 1, 1.5, 2, and 4 h, respectively. Untreated cells were used as a control. Results are presented as mean ± SD of three independent experiments. **P<0.01; ***P<0.001 compared with control.
Not only that the amount of supernatant cytochrome c release from MN-11 cells was measured by ELISA assay to reveal peptide induced mitochondrial DAMPs. Five time points (0.5, 1, 1.5, 2 and 4 hours) were used to quantify the amount of cytochrome c released and the results were shown in FIGS. 8A-8C. Nal-P-113 (FIG. 8A) and Dip-P-113 (FIG. 8C) induced a relatively high amount of cytochrome c compared to Bip-P-113 (FIG. 8B). In the Nal-P-113 (FIG. 8A) treated group, the amount of cytochrome c release has come to a maximal value of nearly 25 ng/mL at 2 hours while the minimum value of 10 ng/mL at 30 minutes has been observed. The highest amounts of cytochrome c detected in the supernatant for Dip-P-113 (FIG. 8C) was around 35 ng/mL at 4 hours and the lower amount around 18 ng/mL at 30 minutes.

MN-11 cells [2] = assay: Tumor re-challenge of cured animals; assay type: in vivo, C57BL/6 mice; conditions: n=5
Procedure: Tumor size was measured every 2 days using a caliper, and the volume of tumors was calculated using the following formula: Tumor size (mm^3) = 0.5×(width^2×length). The survival rates of tumor-bearing mice were observed and recorded

MN-11 cells [3] = assay: PI/Hoechst 33342 staining, plasma membrane integrity; assay type: cell-based, murine; conditions: MN-11, 2× IC50, 2 hrs, data not shown
Procedure: To examine the membrane-lytic activities of peptides, the PI/Hoechst 33342 staining was performed in this embodiment. The PI dye was used to stain damaged/dead cells, and Hoechst 33342 was used to specifically stain the nuclei of living cells. MN-11 cells were seeded at 50,000 cells/well in a RPMI medium and allowed to adhere for 24 hours. Then the cells were replaced with serum-free RPMI medium, and then treated with 2× IC50 peptides at 37° C. for 2 hrs. DMEM medium without peptide was used as negative control. The PI and Hoechst 33342 were added at a final concentration of 1 µg/ml for 20 mins. The cells were observed using the inverted fluorescent microscope Zeiss equipped with a 40× oil objective lens (Carl Zeiss, Germany). The experiments were repeated three times independently
To examine the membrane-lytic activities of Nal-P-113, Bip-P-113, and Dip-P-113, the DNA binding fluorescent dye Propidium iodide (PI) was used to stain damaged/dead cells, and Hoechst 33342 was used to specifically stain the nuclei of living cells.

[4] = tested on: MN-11 cells (murine fibrosarcoma); assay type: cell-based
From the text: Medium with PBS solution was used as control group.
Besides, MTT assay was used to test the cell viability of the murine fibrosarcoma MN-11 cell line. Among the peptides, Dip-P-113 had the lowest cytotoxicity against MN-11 cells (FIG. 1F).

MN-11 cells [5] = assay: Extracellular HMGB1 Western blot, MN-11; assay type: cell-based, murine
Procedure: On the other hand, The MN-11 cells were seeded at the density of 1 × 10^5 cells/well and left to adhere for 24 hrs. Cells were treated with Nal-P-113, Bip-P-113 and Dip-P-113 at 2× IC50 for 1 and 4 hours. After treatment of the peptides, the supernatant and lysate of the cells were collected separately for further experiments. The supernatant was collected after centrifugation at the speed of 1,400 ×g. The cell lysate was washed twice using PBS before the sonication of the pellet using bio-disruptor, and the disrupted pellet was centrifuged again for 10 minutes under 14,000 rpm at 4° C. The concentration of the samples was quantified using the Bradford assay. Both supernatants and cell lysate were loaded and run on the sodium dodecyl sulfate polyacrylamide gel electrophoresis (SDS-PAGE), and then electro transferred to a polyvinylidene difluoride (PVDF) membrane (Merck-Millipore, Burlington, Massachusetts, United States) in electro-blot system, 30 V, 400 mA, for 75 mins. The membrane was incubated in blocking buffer (5% skim milk, TBST buffer) for 1 hour in room temperature and washed in TBST buffer three times. […] The secondary antibody of rabbit (diluted in 1: 10000) was incubated following the rinsing with PBST three times for 2 hours the next day in the room temperature before being developed using luminol reagent and imaged by a detected system (ImageQuant LAS 4000 mini).

MN-11 cell line = assay type: cell-based, murine; conditions: 2 h
Procedure: Besides, evaluation of the killing kinetics of Nal-P-113, Bip-P-113 and Dip-P-113 for MN-11 was determined by MTT assay. Two-fold half 1inhibitory concentration (2 × IC50) was chosen for the experiments and the results were recorded at selected time points (30 mins, 1 hour, 2 hours and 4 hours). […] In 2 hours, the cell survival rate was near 50%.

MN-11 cells [6] = assay: DCFDA cellular ROS detection, MN-11; assay type: cell-based, murine; conditions: MN-11, 2 × IC50, 2-hour treatment
Procedure: However, MN-11 cells were seeded at the density of 25,000 cells/well in the 96-well black plate and allowed to adhere for 24 hours. Cells were washed with a 100 µL/well of PBS to remove the RPMI 1640 medium, and incubated with 100 µL of the 25 µM DCFDA solution for 45 minutes at 37° C. in the dark condition. 100 µL/ well of PBS buffer was washed again for the removal of 25 µM DCFDA solution. The MN-11 cells were treated with Nal-P-113, Bip-P-113 and Dip-P-113 at 2× IC50 for 2 hours. Cells incubated with DMEM without phenol red was used as negative control, and the positive control was tertbutyl hydroperoxide (TBHP) diluted in the 1x Supplemented Buffer. The fluorescence intensity of cellular ROS was determined to an excitation wavelength of 485 nm and an emission wavelength of 535 nm on the Wallac VICTOR 3 Multilabel plate reader (PerkinElmer, Shelton, CT, USA).

CC(=O)N[C@@H](C)C(=O)N[C@@H](CCCCN)C(=O)N[C@@H](CCCNC(=N)N)C(=O)N[C@@H](Cc1ccc2ccccc2c1)C(=O)N[C@@H](Cc1ccc2ccccc2c1)C(=O)NCC(=O)N[C@@H](Cc1ccc(O)cc1)C(=O)N[C@@H](CCCCN)C(=O)N[C@@H](CCCNC(=N)N)C(=O)N[C@@H](CCCCN)C(=O)N[C@@H](Cc1ccccc1)C(=O)N[C@@H](Cc1ccc2ccccc2c1)C(N)=O [SEQ ID NO:3, Ac-AKR Nal Nal GYKRKFNal-NH2] (Ac-AKR[2Nal][2Nal]GYKRKF[2Nal]-NH2)
cytochrome c release, minimum / lower amount (MN-11 cells [1]; MN-11, 2× IC50, at 30 minutes): 10 ng/mL | cytochrome c release, maximal value (MN-11 cells [1]; MN-11, 2× IC50, at 2 hours): ~25 ng/mL | protection from MN-11 cells re-challenge (MN-11 cells [2]; animals with complete regression, s.c. re-challenge): All animals were protected | survival after re-challenge (MN-11 cells [2]; until the end of the experiments (55 days)): stayed alive | plasma membrane integrity (PI entering cells) (MN-11 cells [3]): can cause damage to the plasma membrane integrity | IC50 [4]: 11.1 ± 1.37 µM | HMGB1 in supernatant (MN-11 cells [5]; MN-11, 2× IC50, 1 hour): observed in the supernatant | HMGB1 in supernatant (MN-11 cells [5]; MN-11, 2× IC50, 4 hours): still a significant concentration | cell survival rate (MN-11 cell line): ~50% | fluorescence intensity of cellular ROS (ROS production) (MN-11 cells [6]): did not change
